# From ChEMBL document CHEMBL1156514, “Chemical genetics define the roles of p38alpha and p38beta in acute and chronic inflammation” (J Biol Chem, 2007)
# The source made the active and inactive calls. The rule behind the calls is not given here.
# How the values were obtained:
# Mus musculus [1] = assay: Inhibition of collagen antibody-induced arthritis in p38alpha T106M mutant expressing C57BL/6 mouse at 3 mg/kg, po administered daily once 24 hrs after LPS challenge; format: functional, organism-based; set-up: dose 3 mg/kg
# [2] = Inhibition of LPS-stimulated TNFalpha production in p38alpha expressing mouse peritoneal exudates cells by ELISA; format: functional
# [3] = biological target: Mitogen-activated protein kinase 14 (Homo sapiens, UniProt Q16539, T106M); assay: Inhibition of p38alpha T106M mutant
# Mus musculus [4] = assay: Inhibition of collagen antibody-induced arthritis in wild type C57BL/6 mouse at 3 mg/kg, po administered daily once 24 hrs after LPS challenge; format: functional, organism-based; set-up: dose 3 mg/kg
# [5] = biological target: Mitogen-activated protein kinase 14 (Homo sapiens, UniProt Q16539); assay: Inhibition of wild type p38alpha
# Mus musculus [6] = assay: Inhibition of collagen antibody-induced arthritis in p38beta T106M mutant expressing C57BL/6 mouse at 3 mg/kg, po administered daily once 24 hrs after LPS challenge; format: functional, organism-based; set-up: dose 3 mg/kg
# [7] = biological target: Mitogen-activated protein kinase 11 (Homo sapiens, UniProt Q15759); assay: Inhibition of wild type p38beta
# [8] = Inhibition of LPS-stimulated TNFalpha production in p38beta T106M mutant expressing mouse peritoneal exudates cells by ELISA; format: functional
# [9] = Inhibition of LPS-stimulated TNFalpha production in p38alpha T106M mutant expressing mouse peritoneal exudates cells by ELISA; format: functional
# [10] = Inhibition of LPS-stimulated TNFalpha production in p38beta deficient mouse peritoneal exudates cells by ELISA; format: functional
# [11] = biological target: Mitogen-activated protein kinase 11 (Homo sapiens, UniProt Q15759, T106M); assay: Inhibition of p38beta T106M mutant
# Mus musculus [12] = assay: Inhibition of LPS-stimulated TNFalpha production in p38beta T106M mutant expressing C57BL/6 mouse plasma at 3 mg/kg, po after 90 mins by ELISA; format: functional, organism-based; set-up: dose 3 mg/kg
# Mus musculus [13] = assay: Inhibition of LPS-stimulated TNFalpha production in p38beta deficient C57BL/6 mouse plasma at 3 mg/kg, po after 90 mins by ELISA; format: functional, organism-based; set-up: dose 3 mg/kg
# Mus musculus [14] = assay: Inhibition of LPS-stimulated TNFalpha production in p38alpha T106M mutant expressing C57BL/6 mouse plasma at 3 mg/kg, po after 90 mins by ELISA; format: functional, organism-based; set-up: dose 3 mg/kg
# Mus musculus [15] = assay: Inhibition of LPS-stimulated TNFalpha production in wild type C57BL/6 mouse plasma at 3 mg/kg, po after 90 mins by ELISA; format: functional, organism-based; set-up: dose 3 mg/kg
# Chain of Mitogen-activated protein kinase 11 (Homo sapiens, UniProt Q15759) (Q15759 whole entry): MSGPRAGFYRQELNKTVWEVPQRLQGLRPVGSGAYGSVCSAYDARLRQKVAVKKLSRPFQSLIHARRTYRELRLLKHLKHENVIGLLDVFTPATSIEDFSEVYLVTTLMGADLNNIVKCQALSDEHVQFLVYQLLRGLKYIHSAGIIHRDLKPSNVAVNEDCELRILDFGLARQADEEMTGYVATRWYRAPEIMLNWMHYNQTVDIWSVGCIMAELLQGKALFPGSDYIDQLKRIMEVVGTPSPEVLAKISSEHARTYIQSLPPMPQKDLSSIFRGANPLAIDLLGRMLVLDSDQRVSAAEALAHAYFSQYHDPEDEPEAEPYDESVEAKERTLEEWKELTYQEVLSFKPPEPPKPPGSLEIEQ
# Chain of Mitogen-activated protein kinase 14 (Homo sapiens, UniProt Q16539, T106M) (Q16539 2-360 T106M limits assumed): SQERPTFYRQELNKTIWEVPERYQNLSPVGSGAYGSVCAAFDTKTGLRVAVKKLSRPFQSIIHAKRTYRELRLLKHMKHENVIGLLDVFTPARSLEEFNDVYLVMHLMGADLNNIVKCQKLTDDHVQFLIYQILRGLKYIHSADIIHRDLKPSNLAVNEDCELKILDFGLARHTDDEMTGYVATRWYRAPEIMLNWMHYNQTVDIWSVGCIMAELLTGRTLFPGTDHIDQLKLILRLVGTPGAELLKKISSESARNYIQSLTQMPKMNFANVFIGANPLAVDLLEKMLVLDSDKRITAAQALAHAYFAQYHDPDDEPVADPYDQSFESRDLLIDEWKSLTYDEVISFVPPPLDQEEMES
# Chain of Mitogen-activated protein kinase 11 (Homo sapiens, UniProt Q15759, T106M) (Q15759 whole entry T106M): as the sequence (Q15759 whole entry) above, with T106M counted along it
# Chain of Mitogen-activated protein kinase 14 (Homo sapiens, UniProt Q16539) (Q16539 whole entry): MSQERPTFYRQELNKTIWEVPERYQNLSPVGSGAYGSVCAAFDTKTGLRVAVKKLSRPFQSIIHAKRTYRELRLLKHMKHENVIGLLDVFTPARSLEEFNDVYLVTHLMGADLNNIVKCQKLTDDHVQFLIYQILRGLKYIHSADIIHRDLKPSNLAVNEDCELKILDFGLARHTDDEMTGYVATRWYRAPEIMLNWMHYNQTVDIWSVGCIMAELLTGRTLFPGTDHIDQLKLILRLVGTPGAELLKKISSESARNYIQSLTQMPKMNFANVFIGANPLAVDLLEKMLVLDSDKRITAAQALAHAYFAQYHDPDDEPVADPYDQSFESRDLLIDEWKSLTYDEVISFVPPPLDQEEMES
IC50 [2] [nM],IC50 [3] [nM],IC50 [5] [nM],IC50 [7] [nM],IC50 [8] [nM],IC50 [9] [nM],IC50 [10] [nM],IC50 [11] [nM],SMILES,Activity (Mus musculus [1]),Activity (Mus musculus [4]),Activity (Mus musculus [6]),Activity (Mus musculus [12]),Activity (Mus musculus [13]),Activity (Mus musculus [14]),Activity (Mus musculus [15])
3.5,28,0.08,0.25,8.3,> 250,6.8,260,CC(C)(C)N1CCC(c2cc(-c3ccc(F)cc3F)c3ccc(=O)n(-c4c(Cl)cccc4Cl)c3c2)CC1,inactive,Active,Active,,,,
,,,,,,,,C[C@H](Nc1cc(-c2c(-c3cccc(C(F)(F)F)c3)nc(C3CCNCC3)n2C)ccn1)c1ccccc1,,,,Active,Active,inactive,Active
